US20260356809A1 (The United States of America, as represented by the …, priority 2022, published 2026)
Where two headings read alike, the source gives them in different places.

Experiments:
[1] = target: T1, human D2L receptor (Homo sapiens, UniProt P14416); experiment: D2R radioligand binding, [3H]N-methylspiperone, HEK293 membranes
T1 construct: expressed in transfected cells

[2] = target: T2, human D3 receptor (Homo sapiens, UniProt P35462); experiment: D3R radioligand binding, [3H]N-methylspiperone, HEK293 membranes; settings: for D2R Ki / D3R Ki: ratio of Ki values
T2 construct: expressed in transfected cells
T2 sequence (P35462 whole entry): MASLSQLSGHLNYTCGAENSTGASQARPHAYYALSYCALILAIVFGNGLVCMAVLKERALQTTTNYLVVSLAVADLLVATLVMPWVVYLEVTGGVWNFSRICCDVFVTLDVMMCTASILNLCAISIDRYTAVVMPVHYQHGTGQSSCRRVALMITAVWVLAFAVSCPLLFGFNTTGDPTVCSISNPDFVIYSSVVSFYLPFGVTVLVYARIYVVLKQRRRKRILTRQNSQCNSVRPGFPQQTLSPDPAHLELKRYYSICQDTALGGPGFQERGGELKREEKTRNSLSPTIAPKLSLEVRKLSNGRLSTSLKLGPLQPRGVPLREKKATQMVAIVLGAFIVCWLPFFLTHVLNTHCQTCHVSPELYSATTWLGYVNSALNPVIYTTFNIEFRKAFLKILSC

[3] = target: T3, 5-HT2B (Homo sapiens, UniProt P41595); experiment: 5-HT2B IP-1, antagonist; assay type: cell-based
T3 sequence (P41595 whole entry, species assumed): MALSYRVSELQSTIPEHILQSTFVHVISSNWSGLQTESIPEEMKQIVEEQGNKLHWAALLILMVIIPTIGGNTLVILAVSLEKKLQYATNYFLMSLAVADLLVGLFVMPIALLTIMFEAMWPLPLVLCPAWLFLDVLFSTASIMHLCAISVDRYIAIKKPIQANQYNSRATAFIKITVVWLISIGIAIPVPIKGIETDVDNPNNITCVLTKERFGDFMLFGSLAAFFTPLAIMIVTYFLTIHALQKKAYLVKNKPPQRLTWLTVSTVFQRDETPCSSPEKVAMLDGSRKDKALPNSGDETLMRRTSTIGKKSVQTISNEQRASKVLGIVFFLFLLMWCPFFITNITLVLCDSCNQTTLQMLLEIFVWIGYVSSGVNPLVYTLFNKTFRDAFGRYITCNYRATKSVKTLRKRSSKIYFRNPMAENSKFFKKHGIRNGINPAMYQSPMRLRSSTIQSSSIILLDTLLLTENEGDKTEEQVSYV

[4] = target: T3, 5-HT2B; experiment: 5-HT2B IP-1, agonist; assay type: cell-based; settings: agonist mode
[5] = target: T4, D2LR (Homo sapiens, UniProt P14416); assay type: cell-based; settings: miniG recruitment assay
T4 construct: expressed in transfected cells; host or cells: HEK 293T, transient
T4 sequence (P14416 whole entry): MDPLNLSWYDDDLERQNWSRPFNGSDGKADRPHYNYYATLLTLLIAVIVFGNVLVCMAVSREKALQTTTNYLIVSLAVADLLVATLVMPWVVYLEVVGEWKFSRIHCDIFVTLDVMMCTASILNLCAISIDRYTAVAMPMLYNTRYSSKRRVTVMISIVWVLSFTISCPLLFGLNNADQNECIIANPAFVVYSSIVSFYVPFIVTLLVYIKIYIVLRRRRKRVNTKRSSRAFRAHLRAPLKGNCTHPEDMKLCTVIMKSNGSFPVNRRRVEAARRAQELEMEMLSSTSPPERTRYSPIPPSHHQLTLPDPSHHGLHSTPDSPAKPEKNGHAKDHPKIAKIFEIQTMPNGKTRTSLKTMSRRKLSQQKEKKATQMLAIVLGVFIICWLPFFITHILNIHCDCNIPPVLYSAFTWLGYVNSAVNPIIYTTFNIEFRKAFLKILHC

[6] = tested on: cocaine self-administration in rats; settings: general knowledge statement; cited from earlier work
[7] = [3H]N-methylspiperone, mean ± SEM of at least three experiments, read-out: D3R Ki ± SEM

T1 sequence (P14416 whole entry): as above

Ki [2] | D2R Ki / D3R Ki ([2]; [3H]N-methylspiperone) | Ki ([1]; read-out: D2R Ki ± SEM) | Ki [2, 7] | Compound | further results
 | 11.5 | 3.72 ± 0.02 nM | 0.323 ± 0.075 nM | COC(=O)N[C@H]1CC[C@H](CCN2CCN(c3cccc(Cl)c3Cl)CC2)CC1 [Compound 14a, Methyl (trans-4-(2-(4-(2,3-dichlorophenyl)piperazin-1-yl)ethyl)cyclohexyl)carbamate] | 
 |  | 8.4 ± 2.43 nM | 0.965 ± 0.129 nM | CCOC(=O)N[C@H]1CC[C@H](CCN2CCN(c3cccc(Cl)c3Cl)CC2)CC1 [Compound 14b, Ethyl (trans-4-(2-(4-(2,3-dichlorophenyl)piperazin-1-yl)ethyl)cyclohexyl)carbamate] | 
 | 14.4 | 25 ± 2.1 nM | 1.74 ± 0.17 nM | CCCOC(=O)N[C@H]1CC[C@H](CCN2CCN(c3cccc(Cl)c3Cl)CC2)CC1 [Compound 14c, Propyl (trans-4-(2-(4-(2,3-dichlorophenyl)piperazin-1-yl)ethyl)cyclohexyl)carbamate] | 
≤ 1 nM | 28.6 | 7.67 ± 0.69 nM | 0.268 ± 0.065 nM | COCC(=O)N[C@H]1CC[C@H](CCN2CCN(c3cccc(Cl)c3Cl)CC2)CC1 [Compound 14d, N-(trans-4-(2-(4-(2,3-Dichlorophenyl)piperazin-1-yl)ethyl)cyclohexyl)-2-methoxyacetamide] | 
≤ 1 nM |  | 41.3 ± 3.9 nM | 1.06 ± 0.32 nM | CCOCC(=O)N[C@H]1CC[C@H](CCN2CCN(c3cccc(Cl)c3Cl)CC2)CC1 [Compound 14e, N-(trans-4-(2-(4-(2,3-Dichlorophenyl)piperazin-1-yl)ethyl)cyclohexyl)-2-ethoxyacetamide] | 
 | 18.9 | 21.7 ± 3.8 nM | 1.15 ± 0.29 nM | COCCCC(=O)N[C@H]1CC[C@H](CCN2CCN(c3cccc(Cl)c3Cl)CC2)CC1 [Compound 14f, N-(trans-4-(2-(4-(2,3-Dichlorophenyl)piperazin-1-yl)ethyl)cyclohexyl)-4-methoxybutanamide] | 
 |  | 3.72 ± 0.46 nM | 0.398 ± 0.084 nM | CN(C)CC(=O)N[C@H]1CC[C@H](CCN2CCN(c3cccc(Cl)c3Cl)CC2)CC1 [Compound 14g, N-(trans-4-(2-(4-(2,3-dichlorophenyl)piperazin-1-yl)ethyl)cyclohexyl)-2-(dimethylamino)acetamide] | 
 | 13.6 | 6.06 ± 1.07 nM | 0.447 ± 0.119 nM | CCC(=O)N[C@H]1CC[C@H](CCN2CCN(c3cccc(Cl)c3Cl)CC2)CC1 [Compound 14i, N-(trans-4-(2-(4-(2,3-Dichlorophenyl)piperazin-1-yl)ethyl)cyclohexyl)propionamide] | 
 | 29.3 | 25.6 ± 5.7 nM | 0.875 ± 0.178 nM | CCCC(=O)N[C@H]1CC[C@H](CCN2CCN(c3cccc(Cl)c3Cl)CC2)CC1 [Compound 14j, N-(trans-4-(2-(4-(2,3-Dichlorophenyl)piperazin-1-yl)ethyl)cyclohexyl)butyramide] | 
 | 21.7 | 51.5 ± 18.6 nM | 2.37 ± 0.6 nM | CCCCC(=O)N[C@H]1CC[C@H](CCN2CCN(c3cccc(Cl)c3Cl)CC2)CC1 [Compound 14k, N-(trans-4-(2-(4-(2,3-Dichlorophenyl)piperazin-1-yl)ethyl)cyclohexyl)pentanamide] | 
≤ 1 nM |  | 5.46 ± 2.14 nM | 0.248 ± 0.101 nM | O=C1OCCCN1[C@H]1CC[C@H](CCN2CCN(c3cccc(Cl)c3Cl)CC2)CC1 [Compound 34b, 3-(trans-4-(2-(4-(2,3-Dichlorophenyl)piperazin-1-yl)ethyl)cyclohexyl)-1,3-oxazinan-2-one] | 
 | 12.9 | 5.66 ± 0.89 nM | 0.438 ± 0.053 nM | O=C1NCCN1[C@H]1CC[C@H](CCN2CCN(c3cccc(Cl)c3Cl)CC2)CC1 [Compound 35a, 1-(trans-4-(2-(4-(2,3-Dichlorophenyl)piperazin-1-yl)ethyl)cyclohexyl)imidazolidin-2-one] | 
 |  | 19 ± 4.7 nM | 2.97 ± 0.85 nM | O=C1NCCCN1[C@H]1CC[C@H](CCN2CCN(c3cccc(Cl)c3Cl)CC2)CC1 [Compound 35b, 1-(trans-4-(2-(4-(2,3-Dichlorophenyl)piperazin-1-yl)ethyl)cyclohexyl)tetrahydropyrimidin-2(1H)-one] | 
 |  | 4.49 ± 0.78 nM | 0.537 ± 0.167 nM | O=C1CCCN1[C@H]1CC[C@H](CCN2CCN(c3cccc(Cl)c3Cl)CC2)CC1 [Compound 36a, 1-(trans-4-(2-(4-(2,3-Dichlorophenyl)piperazin-1-yl)ethyl)cyclohexyl)100yrrolidine-2-one] | 
 |  | 9.89 ± 2.77 nM | 1.74 ± 0.46 nM | O=C1CCCCN1[C@H]1CC[C@H](CCN2CCN(c3cccc(Cl)c3Cl)CC2)CC1 [Compound 36b, 1-(trans-4-(2-(4-(2,3-Dichlorophenyl)piperazin-1-yl)ethyl)cyclohexyl)piperidin-2-one] | 

Second part, the compound before the results:

Compound | Ki [2] | D2R Ki / D3R Ki ([2]; [3H]N-methylspiperone) | Ki ([1]; read-out: D2R Ki ± SEM) | Ki [2, 7] | further results
COc1ccccc1N1CCN(CC[C@H]2CC[C@H](NC(=O)N(C)C)CC2)CC1 [Compound 6f, 3-(trans-4-(2-(4-(2-Methoxyphenyl)piperazin-1-yl)ethyl)cyclohexyl)-1,1-dimethylurea] | 1.01 ± 0.32 nM | 6.0 |  |  | Ki [1]: 6.07 ± 2.32 nM
CN(C)C(=O)N[C@H]1CC[C@H](CCN2CCN(c3ccc(Cl)cc3)CC2)CC1 [Compound 6g, 3-(trans-4-(2-(4-(4-Chlorophenyl)piperazin-1-yl)ethyl)cyclohexyl)-1,1-dimethylurea] | 33.8 ± 0.8 nM |  |  |  | Ki [1]: 337 ± 24 nM
CN(C)C(=O)N[C@H]1CC[C@H](CCN2CCN(c3ncccn3)CC2)CC1 [Compound 6h, 1,1-Dimethyl-3-(trans-4-(2-(4-(pyrimidin-2-yl)piperazin-1-yl)ethyl)cyclohexyl)urea] | 600 ± 136 nM | 5.7 |  |  | Ki [1]: 3440 ± 464 nM
CN(C)C(=O)N[C@H]1CC[C@H](CCN2CCN(c3nsc4ccccc34)CC2)CC1 [Compound 6i, 3-(trans-4-(2-(4-(Benzo[d]isothiazol-3-yl)piperazin-1-yl)ethyl)cyclohexyl)-1,1-dimethylurea] | 4.17 ± 0.33 nM | 1.1 |  |  | Ki [1]: 4.43 ± 0.38 nM
CN(C)C(=O)N[C@H]1CC[C@H](CCN2CCC(c3noc4cc(F)ccc34)CC2)CC1 [Compound 6j, 3-(trans-4-(2-(4-(6-Fluorobenzo[d]isoxazol-3-yl)piperidin-1-yl)ethyl)cyclohexyl)-1,1-dimethylurea] | 5.37 ± 0.72 nM | 1.0 |  |  | Ki [1]: 5.26 ± 1.56 nM
CN(C)C(=O)N[C@H]1CC[C@H](CCN2CCN(c3ccc4oc(C(N)=O)cc4c3)CC2)CC1 [Compound 6k, 5-(4-(2-(trans-4-(3,3-Dimethylureido)cyclohexyl)ethyl)piperazin-1-yl)benzofuran-2-carboxamide] | 1460 ± 270 nM | 41.9 |  |  | Ki [1]: 61100 ± 35100 nM
CCc1cccc(N2CCN(CC[C@H]3CC[C@H](NC(=O)c4cc5ccccc5[nH]4)CC3)CC2)c1Cl [Compound 10b, N-(trans-4-(2-(4-(2-Chloro-3-ethylphenyl)piperazin-1-yl)ethyl)cyclohexyl)indole-2-carboxamide] |  |  | 7.8 ± 1.9 nM |  | 
COCCC(=O)N[C@H]1CC[C@H](CCN2CCN(c3cccc(C(F)(F)F)n3)CC2)CC1 [Compound 13d] |  |  |  |  | 5-HT2B IP-1 Emax ± SEM [3]: 95.6 ± 2.0%; IC50 ([3]; read-out: 5-HT2B IP-1 IC50 ± SEM): 460 ± 100 nM; 5-HT2B IP-1 Emax ± SEM [4]: 6.66 ± 0.91%; EC50 ([4]; read-out: 5-HT2B IP-1 EC50 ± SEM): 37 ± 10 nM
NCCc1ccc(O)c(O)c1 [Dopamine, dopamine, reference compound] |  |  |  |  | D2R activity in words, miniG assay [5]: equivalent maximal responses
O=c1[nH]c2ccccc2n1C1CCN(CCCC(c2ccc(F)cc2)c2ccc(F)cc2)CC1 [pimozide] |  |  |  |  | biphasic effects on cocaine self-administration [6]: biphasic effects
(+)-butaclamol |  |  |  |  | biphasic effects on cocaine self-administration [6]: biphasic effects
